Experimental findings from ChEMBL document CHEMBL5360655, “Design, Synthesis, and Biological Evaluation of Novel P2X7 Receptor Antagonists for the Treatment of Septic Acute Kidney Injury” (J Med Chem, 2023) are described below.

Activity calls are given as the source filed them. No cut-off for these calls is given here. A value given as a limit tells only on which side of the number the result lay.

The subject of series [1] is Mus musculus. The series is described as follows: Reno-protective activity against CLP-induced acute kidney injury C57BL/6J mouse model assessed as decrease in cleaved caspase 1 (p20) protein expression in kidney at 20 mg/kg, ip administered twice at 30 mins prior to CLP operation and 8 hrs post-CLP operation and measured at 16 hrs post-CLP operation by western blot analysis. The note with it: time 16.5 hrs. The class given is functional, organism-based.

The test system of series [2] is Mus musculus. Briefly: Reno-protective activity against CLP-induced acute kidney injury C57BL/6J mouse model assessed as decrease in Casp1 gene expression in kidney at 20 mg/kg, ip administered twice at 30 mins prior to CLP operation and 8 hrs post-CLP operation and measured at 16 hrs post-CLP operation by RNA sequencing analysis. The class given is functional, organism-based. As to conditions: time 16.5 hrs.

For series [3], the system named is THP-1. Briefly: Cytotoxicity against human THP-1 cells assessed as effect on cell viability at 1 to 4 uM incubated for 2 hrs by CCK8 assay. The class given is toxicity, cell-based. As to conditions: thp-1, 2 h, dose 1-4 µM. Background: Formazan colour is commonly taken as a measure of viable cells.
In the next series the target is T1, Cytochrome P450 1A2 (Homo sapiens, UniProt P05177).
T1 sequence (P05177 whole entry): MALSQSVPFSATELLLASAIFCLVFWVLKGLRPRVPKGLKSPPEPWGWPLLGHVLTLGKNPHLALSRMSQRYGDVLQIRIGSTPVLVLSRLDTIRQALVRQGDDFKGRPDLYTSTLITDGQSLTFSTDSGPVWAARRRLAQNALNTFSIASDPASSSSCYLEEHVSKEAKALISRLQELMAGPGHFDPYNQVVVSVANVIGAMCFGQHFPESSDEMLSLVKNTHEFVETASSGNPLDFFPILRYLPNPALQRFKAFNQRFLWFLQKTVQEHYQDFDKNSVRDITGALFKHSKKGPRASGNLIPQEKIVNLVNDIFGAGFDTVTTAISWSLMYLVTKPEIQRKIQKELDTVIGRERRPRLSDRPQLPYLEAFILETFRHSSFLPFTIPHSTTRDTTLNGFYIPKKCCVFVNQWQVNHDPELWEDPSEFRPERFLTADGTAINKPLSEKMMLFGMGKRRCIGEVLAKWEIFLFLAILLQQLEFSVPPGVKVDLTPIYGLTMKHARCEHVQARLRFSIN
The series is described as follows: Inhibition of CYP1A2 in human liver microsomes using phenacetin as substrate upto 100 uM incubated for 10 mins in presence of NADPH by LC-MS/MS analysis. The format is ADME, Microsome.

The target in series [4] is T2, P2X purinoceptor 7 (Homo sapiens) (UniProt Q99572).
T2 sequence (whole entry): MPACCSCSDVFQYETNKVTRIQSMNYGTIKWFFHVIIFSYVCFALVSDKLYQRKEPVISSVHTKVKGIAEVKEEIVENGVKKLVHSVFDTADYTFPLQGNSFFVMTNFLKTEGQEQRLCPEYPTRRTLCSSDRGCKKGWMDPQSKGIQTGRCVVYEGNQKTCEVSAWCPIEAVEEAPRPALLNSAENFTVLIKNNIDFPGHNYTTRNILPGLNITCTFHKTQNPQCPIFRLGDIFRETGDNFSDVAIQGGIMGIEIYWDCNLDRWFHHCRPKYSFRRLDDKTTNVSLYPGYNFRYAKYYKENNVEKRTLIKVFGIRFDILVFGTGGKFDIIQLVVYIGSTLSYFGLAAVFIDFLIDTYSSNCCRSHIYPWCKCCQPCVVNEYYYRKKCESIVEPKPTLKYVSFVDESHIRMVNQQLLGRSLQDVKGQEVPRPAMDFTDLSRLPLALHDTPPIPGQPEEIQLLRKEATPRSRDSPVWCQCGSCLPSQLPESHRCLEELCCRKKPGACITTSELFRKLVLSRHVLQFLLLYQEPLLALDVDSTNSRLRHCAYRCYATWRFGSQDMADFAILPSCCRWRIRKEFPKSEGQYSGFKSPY
Briefly: Antagonist activity at human P2X7 receptor expressed in HEK293 cells assessed as inhibition of ATP-induced receptor pore formation at 200 nM by propidium iodide dye uptake based fluorescence analysis. The note with it: filed as antagonist. The format is cell-based.

Series [5] deals with Mus musculus. Briefly: Reno-protective activity against CLP-induced acute kidney injury C57BL/6J mouse model assessed as decrease in IL-18 mRNA expression in kidney at 20 mg/kg, ip administered twice at 30 mins prior to CLP operation and 8 hrs post-CLP operation and measured at 16 hrs post-CLP operation by RT-qPCR analysis. The format is functional, organism-based. As to conditions: time 16.5 hrs. Background: Real-time PCR tracks product formation cycle by cycle.

For series [6], the system named is THP-1. The series is described as follows: Inhibition of ATP-induced apoptosis in human THP-1 cells at 0.5 to […] pretreated with LPS for 3 hrs followed by incubation with compound for 40 mins followed by treatment with ATP for 6 hrs by CCK8 assay. The format is functional, cell-based. As to conditions: dose 0.5-2.5 µM, time 400.0 min.
For the next series, the target named is Cytochrome P450 2C19 (Homo sapiens, UniProt P33261). Briefly: Inhibition of CYP2C19 in human liver microsomes using S-mephenytoin as substrate upto 100 uM incubated for 10 mins in presence of NADPH by LC-MS/MS analysis. The class given is ADME, Microsome.
The nature of series [7]: Toxicity in C57BL/6J mouse assessed as mortality at 600 mg/kg, ip measured for 14 days. The class given is organism-based. The note with it: in vivo, 336 h, time 14 day.
The target in series [8] is Voltage-gated inwardly rectifying potassium channel KCNH2 (Homo sapiens, UniProt Q12809). The series is described as follows: Inhibition of hERG expressed in CHO cells. The format is toxicity, cell-based. (In general: Block of hERG is tested as a sign of cardiac risk.)
Series [9] is described as follows: Intrinsic clearance in mouse liver microsomes. The format is ADME, Microsome. As to conditions: read-out: CLH.
For the next series, the target named is T3, P2X purinoceptor 7 (Homo sapiens, UniProt Q99572).
T3 sequence (Q99572 whole entry): T2 sequence (whole entry)
The series is described as follows: Antagonist activity at human P2X7 receptor expressed in HEK293 cells assessed as inhibition of ATP-induced receptor pore formation by propidium iodide dye uptake based fluorescence analysis. The class given is cell-based.

Series [10] can be described thus: AUC(0 to t) in BALB/c mouse at 10 mg/kg, po measured for 24 hrs by LC-MS/MS analysis. The class given is ADME, organism-based. Further details: time 24 hrs, dose 10 mg/kg, route po. As to conditions: in vivo.
The test system of series [11] is Mus musculus. Briefly: Reno-protective activity against LPS-induced acute kidney injury C57BL/6J mouse model assessed as decrease in serum […] level at 5 to 20 mg/kg, ip administered twice at 30 mins prior to LPS challenge and 8 hrs post-LPS challenge and measured at 16 hrs post-LPS challenge. The class given is functional, organism-based. The note with it: dose 5-20 mg/kg, time 16.5 hrs.

Series [12] relates to Mus musculus. Briefly: Reno-protective activity against CLP-induced acute kidney injury C57BL/6J mouse model assessed as decrease in GSDMD-N protein expression in kidney at 20 mg/kg, ip administered twice at 30 mins prior to CLP operation and 8 hrs post-CLP operation and measured at 16 hrs post-CLP operation by western blot analysis. The format is functional, organism-based. The note with it: time 16.5 hrs.

The subject of series [13] is Mus musculus. The series is described as follows: Reno-protective activity against CLP-induced acute kidney injury C57BL/6J mouse model assessed as decrease in Nlrp3 gene expression in kidney at 20 mg/kg, ip administered twice at 30 mins prior to CLP operation and 8 hrs post-CLP operation and measured at 16 hrs post-CLP operation by RNA sequencing analysis. The note with it: time 16.5 hrs. The class given is functional, organism-based.

The target of a further series is Cytochrome P450 2E1 (Homo sapiens, UniProt P05181). Briefly: Inhibition of CYP2E1 in human liver microsomes using cholorzoxazone-as substrate upto 100 uM incubated for 10 mins in presence of NADPH by LC-MS/MS analysis. The class given is ADME, Microsome.
A short description of series [14]: Half life in human liver microsomes. The format is ADME, Microsome.
A short description of series [15]: Clearance in BALB/c mouse at 10 mg/kg, ip measured for 24 hrs by LC-MS/MS analysis. The format is ADME, organism-based. As to conditions: in vivo.
Series [16] is described as follows: Clearance in BALB/c mouse at 10 mg/kg, po measured for 24 hrs by LC-MS/MS analysis. As to conditions: in vivo. The format is ADME, organism-based.

Voltage-gated inwardly rectifying potassium channel KCNH2, sequence (Q12809 whole entry): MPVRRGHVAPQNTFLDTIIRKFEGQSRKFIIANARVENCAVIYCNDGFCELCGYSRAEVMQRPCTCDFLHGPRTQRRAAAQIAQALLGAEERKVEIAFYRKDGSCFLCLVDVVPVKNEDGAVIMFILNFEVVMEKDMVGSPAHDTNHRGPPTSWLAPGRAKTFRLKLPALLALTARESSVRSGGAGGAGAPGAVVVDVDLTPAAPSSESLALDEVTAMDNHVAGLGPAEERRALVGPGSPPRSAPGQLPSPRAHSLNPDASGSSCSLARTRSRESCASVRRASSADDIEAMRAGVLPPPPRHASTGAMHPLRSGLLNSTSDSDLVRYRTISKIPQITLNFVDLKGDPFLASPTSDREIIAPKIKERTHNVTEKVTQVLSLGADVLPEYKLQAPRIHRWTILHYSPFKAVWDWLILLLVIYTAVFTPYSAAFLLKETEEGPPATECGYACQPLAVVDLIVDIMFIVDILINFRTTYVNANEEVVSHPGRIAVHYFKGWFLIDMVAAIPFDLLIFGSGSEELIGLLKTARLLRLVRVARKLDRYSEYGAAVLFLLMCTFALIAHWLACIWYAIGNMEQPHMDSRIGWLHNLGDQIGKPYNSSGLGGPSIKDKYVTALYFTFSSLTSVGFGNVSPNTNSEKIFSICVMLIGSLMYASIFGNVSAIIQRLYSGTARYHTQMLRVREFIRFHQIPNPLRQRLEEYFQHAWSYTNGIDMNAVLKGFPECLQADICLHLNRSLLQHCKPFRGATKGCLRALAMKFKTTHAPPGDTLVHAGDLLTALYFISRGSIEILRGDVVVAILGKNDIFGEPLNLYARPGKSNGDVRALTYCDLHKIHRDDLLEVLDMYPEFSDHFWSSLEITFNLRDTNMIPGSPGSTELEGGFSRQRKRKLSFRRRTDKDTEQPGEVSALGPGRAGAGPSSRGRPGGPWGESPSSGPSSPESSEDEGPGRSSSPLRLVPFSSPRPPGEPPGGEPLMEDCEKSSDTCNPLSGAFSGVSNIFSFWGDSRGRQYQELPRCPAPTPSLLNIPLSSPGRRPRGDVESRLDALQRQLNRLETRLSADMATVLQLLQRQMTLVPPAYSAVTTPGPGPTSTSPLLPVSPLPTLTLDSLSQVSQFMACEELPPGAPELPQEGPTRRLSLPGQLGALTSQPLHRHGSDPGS
Cytochrome P450 2E1, sequence (P05181 whole entry): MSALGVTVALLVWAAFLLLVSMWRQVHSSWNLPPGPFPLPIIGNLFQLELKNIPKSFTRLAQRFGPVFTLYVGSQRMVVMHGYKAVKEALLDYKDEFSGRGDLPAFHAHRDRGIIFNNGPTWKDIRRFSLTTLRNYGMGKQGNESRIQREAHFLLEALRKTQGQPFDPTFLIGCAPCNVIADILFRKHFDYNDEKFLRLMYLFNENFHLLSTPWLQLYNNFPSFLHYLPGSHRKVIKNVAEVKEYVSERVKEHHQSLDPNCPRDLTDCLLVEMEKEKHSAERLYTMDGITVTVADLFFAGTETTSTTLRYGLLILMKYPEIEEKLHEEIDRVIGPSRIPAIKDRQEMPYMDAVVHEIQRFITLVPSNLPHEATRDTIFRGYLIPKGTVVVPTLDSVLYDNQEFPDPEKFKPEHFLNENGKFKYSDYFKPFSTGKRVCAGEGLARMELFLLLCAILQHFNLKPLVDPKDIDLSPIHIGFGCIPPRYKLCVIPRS
Cytochrome P450 2C19, sequence (P33261 whole entry): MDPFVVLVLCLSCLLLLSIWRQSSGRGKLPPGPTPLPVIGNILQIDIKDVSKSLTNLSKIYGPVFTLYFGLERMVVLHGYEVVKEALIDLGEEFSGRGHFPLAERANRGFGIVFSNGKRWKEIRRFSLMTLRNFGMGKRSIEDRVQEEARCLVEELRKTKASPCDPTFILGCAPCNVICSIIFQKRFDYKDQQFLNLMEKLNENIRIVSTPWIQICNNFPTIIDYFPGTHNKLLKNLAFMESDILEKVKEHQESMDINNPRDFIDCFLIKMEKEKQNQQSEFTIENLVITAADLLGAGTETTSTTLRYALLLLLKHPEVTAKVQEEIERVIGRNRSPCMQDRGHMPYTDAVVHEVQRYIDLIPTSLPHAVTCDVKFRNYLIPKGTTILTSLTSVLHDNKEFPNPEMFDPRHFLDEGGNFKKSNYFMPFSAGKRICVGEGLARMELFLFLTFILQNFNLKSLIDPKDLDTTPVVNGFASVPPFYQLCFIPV

As for `CS(=O)(=O)c1ccc(-c2nc(C(=O)NCc3cn(-c4cc(Br)ccn4)nn3)cs2)cc1`, the outcome in the series with Mus musculus [1], in the series with Mus musculus [2], in the series with Mus musculus [5], with Mus musculus [12] and in the series with Mus musculus [13] was Active. The figures for the Activity entry (with THP-1 [3]; in series [7]; in the series with Mus musculus [11]) were “Non-Toxic”, “Toxic” and “Dose-Dependent Effect”, respectively. The “inhibition (INH)” value at Cytochrome P450 1A2, at Cytochrome P450 2C19 and on Cytochrome P450 2E1 was “Not Active” in each case. Moreover, the inhibition (commonly the percentage by which the read-out fell short of the control) in [4] amounted to 92%. The inhibition result in the series on THP-1 [6] is “Active”. The IC50 (as a rule, the midpoint of a concentration-inhibition curve) was greater than 30 µM in [8] and 0.0647 µM at P2X purinoceptor 7. Moreover, the CLint scaled in series [9] is less than 0.72 L/h/kg. For the same compound, the AUC(0-t) (as a rule, exposure summed from dosing to a finite time, without extrapolation to infinity) at 24 h in series [10] was found to be 6.51 µg·h/mL. The half-life (as a rule, how long it takes for the measured level to halve) in series [14] stood at 1.75 h. Moreover, the results for the apparent clearance CL/F in [15] and in [16] were 0.76 L/h/kg and 1.55 L/h/kg, respectively.
